The text below walks through data of US20090325960A1, “METHOD FOR TREATING INFLAMMATORY DISEASES USING RHO KINASE INHIBITOR COMPOUNDS” (priority 2008, published 2009).

SMILES strings stand for the structures. Where two headings read alike, the source gives them in different places.

The nature of data set [1]: Compound plasma concentrations in unsensitized mice at 15 min post administration. It counts as in vivo. As to conditions: mouse, 15 μmol/kg; mean plasma concentration in mice at 15 minutes post oral administration; read-out: Mouse Oral PK.
Description: Additionally, compound concentrations were determined in the plasma and lungs of male, ovalbumin-sensitized, Balb/c mice from a murine model of asthma. Test compounds were formulated in water or 1% polysorbate 80 and dosed at 15 μmol/kg for intraperitoneal (IP) or oral (PO) administration or formulated for intratracheal (IT) administration and dosed at 5 μmol/kg, which directly targets the lungs. Following completion of the in vivo study, mice were euthanized and blood and plasma collected approximately 2.5-3 hours post administration of test compound for bronchodialator (BD) studies and 24 hours post administration for anti-inflamatory (AI) studies. Lungs were homogenized in Matrix A lysing tubes using a FastPrep 24 tissue and cell homogenizer (MP Biomedicals, Solon, Ohio). Both plasma samples and lung extracts were assayed for compound concentrations using an on-line, solid phase extraction LC/MS/MS system.
The target in the next data set is p70S6K human enzyme (Homo sapiens, UniProt P23443, T412E). Nature of the data set: p70S6K inhibition assay (IMAP FP). It counts as biochemical.
The target in another data set is T1, ROCK1 (Homo sapiens, UniProt Q13464).
T1 construct: purchased Upstate/Chemicon 14-601
As to the kind of experiment: Rho kinase inhibition assay (IMAP fluorescence polarization), ROCK1. It counts as biochemical.

A further data set has as its target T2, Akt3 human enzyme (Homo sapiens, UniProt Q9Y243).
T2 construct: purchased Upstate Chemicon 14-502
As to the kind of experiment: Akt3 inhibition assay (IMAP FP). It counts as biochemical.

Data set [2] has as its system cytokine secretion from LPS-stimulated human monocytes. Nature of the data set: Human monocyte cytokine secretion assay (LPS-stimulated). It counts as cell-based.
Description: Peripheral blood from healthy human volunteers was collected and the monocytes isolated via Ficoll-paque density centrifugation. […] The cells were allowed to pre-incubate with test compound at the indicated concentration for 30 minutes (37° C., 5% CO2, humidified air); after which the supernatant was removed and media containing compound and 1 ng/mL LPS was added. Cells were allowed to incubate with compounds and LPS for 4 hours at 37° C. after which the supernatant was removed and stored at −80° C. Cytokine concentrations in the supernatant were determined using commercially available Bio-Rad Bio-Plex™ kits according the manufacturer's instructions.
The subject of data set [3] is A-10 rat thoracic aorta cells. Nature of the data set: PDGF-stimulated smooth muscle cell proliferation assay (BrdU incorporation). It counts as cell-based.
Description: Effects on cell proliferation were measured using a bromodeoxyuridine (BrdU) incorporation assay. […] Serum free media containing 0.1% BSA was added to the cells. 24 hours later the media was removed and replaced with warmed serum free media. […] Proliferation was then monitored using the BrdU Cell Proiferation Assay, HTS (Calbiochem cat. # HTS01). BrdU was allowed to incorporate into cells for 24 hours prior to the addition of fixative/denaturing solution and the fluorometric detection of incorporated BrdU using a BrdU antibody as per manufacturer's directions. Data are reported as a percent of the PDGF-stimulated BrdU incorporation.

T2 sequence (Q9Y243 whole entry): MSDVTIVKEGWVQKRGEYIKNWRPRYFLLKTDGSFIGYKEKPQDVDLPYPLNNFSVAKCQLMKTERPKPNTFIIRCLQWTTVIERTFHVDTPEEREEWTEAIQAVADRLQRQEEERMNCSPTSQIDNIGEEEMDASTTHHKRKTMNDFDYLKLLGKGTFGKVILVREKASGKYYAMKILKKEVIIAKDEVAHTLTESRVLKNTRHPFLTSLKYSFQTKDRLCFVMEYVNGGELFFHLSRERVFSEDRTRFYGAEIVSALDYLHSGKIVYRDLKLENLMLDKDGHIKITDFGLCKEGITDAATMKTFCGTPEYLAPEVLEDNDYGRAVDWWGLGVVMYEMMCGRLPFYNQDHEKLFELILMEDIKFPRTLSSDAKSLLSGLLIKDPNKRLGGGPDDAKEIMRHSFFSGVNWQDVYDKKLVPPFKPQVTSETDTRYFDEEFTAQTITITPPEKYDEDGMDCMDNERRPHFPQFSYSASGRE
p70S6K human enzyme, sequence (P23443 whole entry T412E): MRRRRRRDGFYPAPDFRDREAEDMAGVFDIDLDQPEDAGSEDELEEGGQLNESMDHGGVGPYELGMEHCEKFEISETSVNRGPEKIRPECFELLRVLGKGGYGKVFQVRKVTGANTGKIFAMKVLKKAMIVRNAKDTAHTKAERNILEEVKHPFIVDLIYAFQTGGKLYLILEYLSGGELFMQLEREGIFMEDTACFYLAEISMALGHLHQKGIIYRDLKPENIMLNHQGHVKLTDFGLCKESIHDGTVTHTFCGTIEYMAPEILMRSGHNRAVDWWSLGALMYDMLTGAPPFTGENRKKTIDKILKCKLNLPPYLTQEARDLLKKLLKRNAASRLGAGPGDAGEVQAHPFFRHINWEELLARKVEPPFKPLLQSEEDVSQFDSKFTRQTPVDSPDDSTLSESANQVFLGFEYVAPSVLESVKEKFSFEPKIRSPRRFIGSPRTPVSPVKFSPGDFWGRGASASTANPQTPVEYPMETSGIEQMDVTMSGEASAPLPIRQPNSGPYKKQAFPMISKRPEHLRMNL
T1 sequence (Q13464 17-535 limits assumed): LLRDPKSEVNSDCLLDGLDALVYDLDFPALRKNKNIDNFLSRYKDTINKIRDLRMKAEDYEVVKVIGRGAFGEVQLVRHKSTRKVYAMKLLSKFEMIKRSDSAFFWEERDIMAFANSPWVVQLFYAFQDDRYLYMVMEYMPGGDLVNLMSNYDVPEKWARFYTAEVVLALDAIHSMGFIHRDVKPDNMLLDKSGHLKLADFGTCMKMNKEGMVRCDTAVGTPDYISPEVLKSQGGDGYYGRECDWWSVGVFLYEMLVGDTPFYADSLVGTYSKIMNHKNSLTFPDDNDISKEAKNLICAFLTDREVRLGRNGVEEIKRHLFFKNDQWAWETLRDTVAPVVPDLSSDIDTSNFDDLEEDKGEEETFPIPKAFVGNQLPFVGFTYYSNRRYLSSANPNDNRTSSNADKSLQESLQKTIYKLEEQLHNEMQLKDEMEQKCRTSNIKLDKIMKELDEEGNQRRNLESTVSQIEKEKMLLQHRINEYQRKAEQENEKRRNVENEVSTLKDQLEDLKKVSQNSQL
Description for Akt3 human enzyme: (§1) Inhibition of Akt3 and p70S6K activity was determined using the IMAP™ FP Progressive Binding Kit (Molecular Devices product number R8127). […] Following the pre-incubation, 30 μM ATP was added to initiate the reaction. After 60 minutes at RT, Molecular Devices IMAP™ binding solution was added to bind phosphorylated substrate. After 30 minutes of incubation in the presence of the IMAP™ beads the fluorescence polarization was read and the ratio was reported as mP. IC50 results were calculated using the Prism software from Graphpad. The Ki values were determined according to the following formula: Ki=IC50/(1+([ATP Challenge]/EC50 ATP)).
Description for ROCK1: Following the pre-incubation, 10 μM ATP was added to initiate the reaction. After 60 minutes at room temperature, Molecular Devices IMAP™ binding solution was added to bind phosphorylated substrate. After 30 minutes of incubation in the presence of the IMAP™ beads, the fluorescence polarization was read and the ratio was reported as mP. IC50 values for compounds and EC50 values for ATP were calculated using the Prism software from Graphpad.
Description for p70S6K human enzyme: as §1

Consider `Cc1ccc(CN2CC[C@@H](Nc3cccc4cnccc34)C2)cc1OCCO` [Compound 2.064, (R)-2-(5-((3-(isoquinolin-5-ylamino)pyrrolidin-1-yl)methyl)-2-methylphenoxy)ethanol], for which the concentration at 15 min in data set [1] was 202 nM. The Ki turned out to be 178 nM on p70S6K human enzyme (average, read-out: p70S6K Ki); 178 nM at p70S6K human enzyme (read-out: p70S6K Ki, Avg); 4.1 nM at ROCK1; 4.1 nM on ROCK1 (read-out: ROCK1 Ki, average); 382 nM at Akt3 human enzyme (average, read-out: Akt3 Ki); 382 nM at Akt3 human enzyme (read-out: Akt3 Ki, Avg). Further, the activity at 10 µM is 14.3% in data set [2] (10 μM of test compound, 1 ng/mL LPS, 4 hours, read-out: IL-1β % (Percent inhibition values for inhibition of cytokine secretion)); 66.2% in data set [2] (10 μM of test compound, 1 ng/mL LPS, 4 hours, read-out: TNF-α % (Percent inhibition values for inhibition of cytokine secretion)); 45.7% in data set [2] (read-out: IL-6 % (Percent inhibition values for inhibition of cytokine secretion), 10 μM of test compound, 1 ng/mL LPS, 4 hours). Besides, the “Percent of PDGF Induced Proliferation at 1 μM Avg” value in data set [3] (1 μM, 10 ng/mL PDGF) turned out to be 53.1%. The “Percent of PDGF Induced Proliferation at 10 μM Avg” value in data set [3] (10 μM, 10 ng/mL PDGF) is 56.2%. Moreover, in data set [3] (average percent of PDGF stimulated proliferation at 1 μM test compound), the “Proliferation at 1 μM” value came out at 53.1%. In data set [3] (average percent of PDGF stimulated proliferation at 10 μM test compound), the “Proliferation at 10 μM” value is listed as 56.2%.
